According to patent US20240300945A1, “CLY SERIES COMPOUND, PREPARATION METHOD THEREFOR AND USE THEREOF IN PREPARATION OF DRUGS” (NANJING WELLBEST PHARMACEUTICAL CO., LTD, priority 2021, published 2024):
Blank lines part the entries; values can stand above or below the molecule they belong to.

Tests used:
[1] = Pharmacokinetic properties of rats (bioavailability); type: in vivo; details: rat, po; male SD rats; intravenous 1 mg/kg, intragastric 5 mg/kg; plasma LC/MS/MS
Description: Male SD rats were randomly assigned to each group, 12 rats in each compound group, and then randomly divided into two groups. Six rats were administered intravenously (1 mg/kg), and blood was collected and plasma was separated respectively at 0.0833, 0.25, 0.5, 1, 2, 4, 6, 8, and 24 hours after administration. The other six rats were administered intragastrically (5 mg/kg), and blood was collected and plasma was separated respectively at 0.25, 0.5, 1, 2, 4, 6, 8, and 24 hours after administration. The concentration of each compound in plasma was determined by LC/MS/MS method, and the relevant pharmacokinetic parameters were calculated by using the software Phoenix WinNonlin 6.2.1, the bioavailability in rats was calculated, and the pharmacokinetic properties of each compound were evaluated.

serum IL-4 = assay: Mouse eczema model: serum IL-4 (ELISA); type: in vivo, C57BL/6 mice; details: after modeling, 0.1% cream for external use twice a day, 10 days (positive: aloxone)
Description: SPF grade female C57BL/6 mice were purchased at the age of 8 weeks (0.02 kg), 6 in each group, and randomly divided into the blank control group, model group, positive drug group, CLY-1 treatment group (0.1% CLY-1 cream for external use), CLY-2 treatment group (0.1% CLY-2 cream for external use), CLY-3 treatment group (0.1% CLY-3 cream for external use), CLY-4 treatment group (0.1% CLY-4 cream for external use), CLY-8 treatment group (0.1% CLY-8 cream for external use), CLY-11 treatment group (0.1% CLY-11 cream for external use) CLY-19 treatment group (0.1% CLY-19 cream for external use), CLY-36 treatment group (0.1% CLY-36 cream for external use) and CLY-39 treatment group (0.1% CLY-39 cream for external use).
Model establishment: the normal control group mice were smeared with 75% ethanol 14.3 ul on both ears, while the model group, positive drug group and treatment group were smeared with 1 nmol/L carpotriol liniment 14.3 ul on both ears at a regular time every day, and then smeared with 20 g/L OVA 25 ul after air drying, once a day, for 12 days to make a model.
From 4 days after the start of modeling, applied the cream matrix on the ear skin of mice in the blank control group and the model group, applied aloxone on the ear skin of mice in the positive drug group, and applied the treatment cream on the ear skin of mice in each treatment group respectively, twice a day in the morning and evening, for 10 consecutive days, took photos every day, and recorded scores.
The thickness of mouse auricle was measured and recorded with ear thickness measuring instrument before and on the 14th day respectively. After the measurement on the 14th day, the mice were sacrificed. Blood was taken and serum was separated.
The enzyme-labeled plate was coated with rabbit anti-mouse interleukin (IL)-4 antibody, stayed at 4° C. overnight, and the reaction was stopped according to the instructions of the ELISA kit to detect the level of serum IL-4. ELISA kits were all purchased from Raybiotech, USA.

[2] = system: skin hair follicles and sebaceous glands of rats; assay: Rat hair loss model: histopathological grading of skin hair follicles and sebaceous glands; type: in vivo, Wistar rats; details: 60 days, 10 rats per group; for number of rats with hair follicle and sebaceous gland grade +++: grade +++ (most severe); for number of rats with hair follicle and sebaceous gland grade ±: grade ± (lesions limited); for number of rats with hair follicle and sebaceous gland grade −: grade − (normal structure)
Description: Wistar rats were, according to weights, randomly divided into the negative control group (75% ethanol for external use), model group (75% ethanol for external use), positive control group (external 5% minoxidil tincture), CLY-1 external treatment group (external 5% CLY-1 tincture), CLY-2 external treatment group (external 5% CLY-2 tincture), CLY-3 external treatment group (external 5% CLY-3 tincture), CLY-4 external treatment group (external 5% CLY-4 tincture), and CLY-5 external treatment group (external 5% CLY-5 tincture) according to their body weight CLY-8 external treatment group (external 5% CLY-8 tincture), CLY-11 external treatment group (external 5% CLY-11 tincture), CLY-19 external treatment group (external 5% CLY-19 tincture), CLY-36 external treatment group (external 5% CLY-36 tincture), CLY-39 external treatment group (external 5% CLY-39 tincture), CLY-1 intravenous injection group (2 mg/kg·d), CLY-3 intravenous injection group (2 mg/kg·d), CLY-4 intravenous injection group (2 mg/kg·d) CLY-5 intravenous injection group (2 mg/kg·d), CLY-8 intravenous injection group (2 mg/kg·d), CLY-11 intravenous injection group (2 mg/kg·d), CLY-19 intravenous injection group (2 mg/kg·d), CLY-36 intravenous injection group (2 mg/kg·d), and CLY-39 intravenous injection group (2 mg/kg·d), with 10 rats in each group. Before the experiment, an area of 4 cm×5 cm was selected on each rat on the back of the neck to remove hair as the observation area. In addition to the negative control group, rats were subcutaneously injected with testosterone propionate injection [5 ml/(kg·d)] once a day for 60 days to establish the androgenic alopecia (AGA) model. […] At the same time, the drug was applied to the observation area on the back of the rats in the corresponding drug group at the rate of 2 mL/(one time), twice a day, at an interval of 8 hours; Intravenous administration once a day. The negative control group and the model control group were smeared with 75% ethanol solution, 2 mL/(one rat per time), twice a day, for 60 days.
Took 10 hairs from the observation area on the back of each rat every 15 days after administration, and measured the hair length with a vernier caliper. After 60 days of administration, the skin of the experimental observation area was taken for routine tissue dehydration, paraffin embedding, HE staining, and light microscopy to observe the histopathological changes of the rat skin hair follicles and sebaceous glands. Semi-quantitative analysis was performed for each group. The grading criteria are as follows: the normal structure of dermal tissue cells, subcutaneous hair follicles, and sebaceous glands is marked as […]: no hyperplasia of dermal tissue is found, the lesions of hair follicles and sebaceous glands are limited, and no inflammation is found under the skin is marked as “+”: no obvious hyperplasia of dermal tissue is found, and the follicles are obviously cystic. No obvious hyperplasia of sebaceous glands is found, and no inflammation is found under the skin is marked as “+”: the dermal tissue has segmental hyperplasia, which is not obvious, A small number of hair follicles have cystic changes, and the sebaceous glands have mild hyperplasia and hypertrophy. There is no obvious inflammation under the skin, which is marked as “++”: the dermal tissue cells of the skin have different degrees of segmental hyperplasia, and some hair follicles have cystic changes, showing uneven size of hair follicles, and no cells around. The sebaceous glands have hyperplasia, and the nuclei in the proliferative glands are few. A few rats have mild inflammatory hyperplasia under the skin, which is marked as “+++”.

Compound: CN1CCC[C@@H](N(C(=O)c2ccc(-n3nnc4cccnc43)cc2)c2ncccc2Cl)C1 [CLY-1, (R)-4-(3H-[1,2,3]triazolo[4,5-b]pyridin-3-yl)-N-(3-chloropyridin-2-yl)-N-(1-methylpiperidin-3-yl)benzamide]
- bioavailability [1]: 69.8%
- IL-4 level in peripheral blood (serum IL-4): 6.76 pg/mL
- number of rats with hair follicle and sebaceous gland grade +++ ([2]; external 5% tincture): 0
- number of rats with hair follicle and sebaceous gland grade +++ ([2]; intravenous 2 mg/kg·d): 0
- number of rats with hair follicle and sebaceous gland grade ++ ([2]; external 5% tincture): 1
- number of rats with hair follicle and sebaceous gland grade ++ ([2]; intravenous 2 mg/kg·d): 0
- number of rats with hair follicle and sebaceous gland grade + ([2]; external 5% tincture): 4
- number of rats with hair follicle and sebaceous gland grade + ([2]; intravenous 2 mg/kg·d): 4
- number of rats with hair follicle and sebaceous gland grade ± ([2]; external 5% tincture): 5
- number of rats with hair follicle and sebaceous gland grade ± ([2]; intravenous 2 mg/kg·d): 6
- number of rats with hair follicle and sebaceous gland grade − ([2]; external 5% tincture): 0
- number of rats with hair follicle and sebaceous gland grade − ([2]; intravenous 2 mg/kg·d): 0

Compound: CCN1CCC[C@@H](N(C(=O)c2ccc(-n3nnc4cccnc43)cc2)c2ncccc2Cl)C1 [CLY-2, (R)-4-(3H-[1,2,3]triazolo[4,5-b]pyridin-3-yl)-N-(3-chloropyridin-2-yl)-N-(1-ethylpiperidin-3-yl)benzamide]
- bioavailability [1]: 72.6%
- IL-4 level in peripheral blood (serum IL-4): 5.58 pg/mL
- number of rats with hair follicle and sebaceous gland grade +++ ([2]; external 5% tincture): 0
- number of rats with hair follicle and sebaceous gland grade +++ ([2]; intravenous 2 mg/kg·d): 0
- number of rats with hair follicle and sebaceous gland grade ++ ([2]; external 5% tincture): 1
- number of rats with hair follicle and sebaceous gland grade ++ ([2]; intravenous 2 mg/kg·d): 0
- number of rats with hair follicle and sebaceous gland grade + ([2]; external 5% tincture): 3
- number of rats with hair follicle and sebaceous gland grade + ([2]; intravenous 2 mg/kg·d): 3
- number of rats with hair follicle and sebaceous gland grade ± ([2]; external 5% tincture): 6
- number of rats with hair follicle and sebaceous gland grade ± ([2]; intravenous 2 mg/kg·d): 7
- number of rats with hair follicle and sebaceous gland grade − ([2]; external 5% tincture): 0
- number of rats with hair follicle and sebaceous gland grade − ([2]; intravenous 2 mg/kg·d): 0

- bioavailability [1]: 69.5%
Compound: CNC1CCCC(N(C(=O)c2ccc(-n3nnc4cccnc43)cc2)c2ncccc2Cl)C1 (stereo not shown) [CLY-3]
- IL-4 level in peripheral blood (serum IL-4): 7.32 pg/mL
- number of rats with hair follicle and sebaceous gland grade +++ ([2]; external 5% tincture): 0
- number of rats with hair follicle and sebaceous gland grade +++ ([2]; intravenous 2 mg/kg·d): 0
- number of rats with hair follicle and sebaceous gland grade ++ ([2]; external 5% tincture): 1
- number of rats with hair follicle and sebaceous gland grade ++ ([2]; intravenous 2 mg/kg·d): 1
- number of rats with hair follicle and sebaceous gland grade + ([2]; external 5% tincture): 5
- number of rats with hair follicle and sebaceous gland grade + ([2]; intravenous 2 mg/kg·d): 4
- number of rats with hair follicle and sebaceous gland grade ± ([2]; external 5% tincture): 4
- number of rats with hair follicle and sebaceous gland grade ± ([2]; intravenous 2 mg/kg·d): 5
- number of rats with hair follicle and sebaceous gland grade − ([2]; external 5% tincture): 0
- number of rats with hair follicle and sebaceous gland grade − ([2]; intravenous 2 mg/kg·d): 0

- bioavailability [1]: 59.5%
Compound: O=C(c1ccc(-n2nnc3cccnc32)cc1)N(c1ncccc1Cl)C1CCCC(O)C1 (stereo not shown) [CLY-4]
- IL-4 level in peripheral blood (serum IL-4): 7.51 pg/mL
- number of rats with hair follicle and sebaceous gland grade +++ ([2]; external 5% tincture): 0
- number of rats with hair follicle and sebaceous gland grade +++ ([2]; intravenous 2 mg/kg·d): 0
- number of rats with hair follicle and sebaceous gland grade ++ ([2]; external 5% tincture): 3
- number of rats with hair follicle and sebaceous gland grade ++ ([2]; intravenous 2 mg/kg·d): 1
- number of rats with hair follicle and sebaceous gland grade + ([2]; external 5% tincture): 4
- number of rats with hair follicle and sebaceous gland grade + ([2]; intravenous 2 mg/kg·d): 5
- number of rats with hair follicle and sebaceous gland grade ± ([2]; external 5% tincture): 3
- number of rats with hair follicle and sebaceous gland grade ± ([2]; intravenous 2 mg/kg·d): 4
- number of rats with hair follicle and sebaceous gland grade − ([2]; external 5% tincture): 0
- number of rats with hair follicle and sebaceous gland grade − ([2]; intravenous 2 mg/kg·d): 0

- bioavailability [1]: 53.8%
Compound: COC1CCCC(N(C(=O)c2ccc(-n3nnc4cccnc43)cc2)c2ncccc2Cl)C1 (stereo not shown) [CLY-5]
- number of rats with hair follicle and sebaceous gland grade +++ ([2]; external 5% tincture): 0
- number of rats with hair follicle and sebaceous gland grade +++ ([2]; intravenous 2 mg/kg·d): 0
- number of rats with hair follicle and sebaceous gland grade ++ ([2]; external 5% tincture): 0
- number of rats with hair follicle and sebaceous gland grade ++ ([2]; intravenous 2 mg/kg·d): 0
- number of rats with hair follicle and sebaceous gland grade + ([2]; external 5% tincture): 4
- number of rats with hair follicle and sebaceous gland grade + ([2]; intravenous 2 mg/kg·d): 2
- number of rats with hair follicle and sebaceous gland grade ± ([2]; external 5% tincture): 6
- number of rats with hair follicle and sebaceous gland grade ± ([2]; intravenous 2 mg/kg·d): 8
- number of rats with hair follicle and sebaceous gland grade − ([2]; external 5% tincture): 0
- number of rats with hair follicle and sebaceous gland grade − ([2]; intravenous 2 mg/kg·d): 0

Compound: O=C(c1ccc(-n2nnc3cccnc32)cc1)N(c1ncccc1Cl)[C@@H]1CCNC1 [CLY-8, (R)-4-(3H-[1,2,3]triazolo[4,5-b]pyridin-3-yl)-N-(3-chloropyridin-2-yl)-N-(pyrrolidin-3-yl)benzamide]
- bioavailability [1]: 78.2%
- IL-4 level in peripheral blood (serum IL-4): 5.53 pg/mL
- number of rats with hair follicle and sebaceous gland grade +++ ([2]; external 5% tincture): 0
- number of rats with hair follicle and sebaceous gland grade +++ ([2]; intravenous 2 mg/kg·d): 0
- number of rats with hair follicle and sebaceous gland grade ++ ([2]; external 5% tincture): 0
- number of rats with hair follicle and sebaceous gland grade ++ ([2]; intravenous 2 mg/kg·d): 0
- number of rats with hair follicle and sebaceous gland grade + ([2]; external 5% tincture): 3
- number of rats with hair follicle and sebaceous gland grade + ([2]; intravenous 2 mg/kg·d): 2
- number of rats with hair follicle and sebaceous gland grade ± ([2]; external 5% tincture): 7
- number of rats with hair follicle and sebaceous gland grade ± ([2]; intravenous 2 mg/kg·d): 8
- number of rats with hair follicle and sebaceous gland grade − ([2]; external 5% tincture): 0
- number of rats with hair follicle and sebaceous gland grade − ([2]; intravenous 2 mg/kg·d): 0

Compound: NC1CCCC(N(C(=O)c2ccc(-n3nnc4cccnc43)cc2)c2ncccc2Cl)C1 (stereo not shown) [CLY-11]
- bioavailability [1]: 63.5%
- IL-4 level in peripheral blood (serum IL-4): 6.45 pg/mL
- number of rats with hair follicle and sebaceous gland grade +++ ([2]; external 5% tincture): 0
- number of rats with hair follicle and sebaceous gland grade +++ ([2]; intravenous 2 mg/kg·d): 0
- number of rats with hair follicle and sebaceous gland grade ++ ([2]; external 5% tincture): 1
- number of rats with hair follicle and sebaceous gland grade ++ ([2]; intravenous 2 mg/kg·d): 1
- number of rats with hair follicle and sebaceous gland grade + ([2]; external 5% tincture): 4
- number of rats with hair follicle and sebaceous gland grade + ([2]; intravenous 2 mg/kg·d): 3
- number of rats with hair follicle and sebaceous gland grade ± ([2]; external 5% tincture): 5
- number of rats with hair follicle and sebaceous gland grade ± ([2]; intravenous 2 mg/kg·d): 6
- number of rats with hair follicle and sebaceous gland grade − ([2]; external 5% tincture): 0
- number of rats with hair follicle and sebaceous gland grade − ([2]; intravenous 2 mg/kg·d): 0

Compound: Nc1cc(N2CCCCC2)nc(N)[n+]1[O-] [Positive control group, minoxidil, reference compound]
- number of rats with hair follicle and sebaceous gland grade +++ ([2]; external 5% tincture): 1
- number of rats with hair follicle and sebaceous gland grade ++ ([2]; external 5% tincture): 3
- number of rats with hair follicle and sebaceous gland grade + ([2]; external 5% tincture): 4
- number of rats with hair follicle and sebaceous gland grade ± ([2]; external 5% tincture): 2
- number of rats with hair follicle and sebaceous gland grade − ([2]; external 5% tincture): 0
